Experimental data as given in patent US11111238B2, “Coumarin derivatives, processes for their preparation and uses thereof for the treatment of cancer” (Lead Discovery Center GmbH, priority 2017, dated 2021).
pIC50: −log10 of the molar value.

Experiments:
[1] = target: mitochondrial RNA-polymerase (POLRMT) (Mus musculus, UniProt Q8BKF1); assay: Homogeneous TR-FRET assay for mitochondrial transcription activity; format: biochemical; details: homogeneous TR-FRET assay according to Example 4; activity class
In short: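 TR-FRET read-out (340 nm excitation, 665 nm emission) of a 407 bp transcript captured by Eu-streptavidin/biotin donor and ATTO647N acceptor DNA probes after EDTA stop. Transcription ran 2 h at RT with 500 μM […], mouse POLRMT/TFAM/TFB2M and LSP-plasmid template, after 10 min compound preincubation (10 μM or dilution series).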

[2] = system: mitochondrial transcription (7S RNA) in HeLa cells; assay: Quantitative real time-PCR assay of inhibition of mitochondrial transcription (cellular qPCR assay IMT); format: cell-based; details: Homo sapiens, 4 h compound incubation, qRT-PCR according to Example 5, activity class
Protocol: Quantitative real-time PCR (qRT-PCR), based on the TagMan™ (Thermo Fisher Scientific, Waltham Mass.) technology, was carried out essentially as described in (Heid et al., 1996). HeLa cells were plated one day before compound treatment in RPMI medium supplemented with 10% Fetal Calf Serum and 2 mM L-glutamine. Cells were incubated with dilution series of compounds or vehicle (DMSO) for 4 h, prior to harvest and extraction of the RNA using the RNeasy Mini Kit (Qiagen, Hilden D), according to the manufacturer's instructions. RNA concentrations were measured spectroscopically, using a NanoDrop-2000 (Thermo Fisher Scientific, Waltham Mass.) and normalized prior to cDNA synthesis, using a ‘High-Capacity cDNA Reverse Transcription Kit’ (Thermo Fisher Scientific, Waltham Mass.). qRT-PCR was carried out using the ‘TaqMan Fast Advance Master Mix’ (Thermo Fisher Scientific, Waltham Mass.) on a 7500 Fast Real-Time PCR machine (Applied Biosystems, Foster City Calif.)
For these measurements, three genes were used to compare the effect of the scrutinized compounds in relation to their concentration. The POLRMT-gene was used to detect potential influences on nuclear transcription. Mitochondrial transcription in vivo was monitored by measurements 7S RNA. The TBP (TATA-box binding protein) gene was employed as the control (housekeeping gene) during qRT-PCR. The short-lived mitochondrial 7S RNA, which is not post-transcriptionally stabilized, allowed us to monitor rapid changes in mitochondrial transcription activity following compound addition. Biological triplicates were analyzed using the comparative CT Method (ΔΔCt) method (Bubner and Baldwin, 2004) and reported as Rq % values (Rq=Relative quantification=2-ΔΔCt).

Chain of mitochondrial RNA-polymerase (POLRMT) (Q8BKF1 42-1207): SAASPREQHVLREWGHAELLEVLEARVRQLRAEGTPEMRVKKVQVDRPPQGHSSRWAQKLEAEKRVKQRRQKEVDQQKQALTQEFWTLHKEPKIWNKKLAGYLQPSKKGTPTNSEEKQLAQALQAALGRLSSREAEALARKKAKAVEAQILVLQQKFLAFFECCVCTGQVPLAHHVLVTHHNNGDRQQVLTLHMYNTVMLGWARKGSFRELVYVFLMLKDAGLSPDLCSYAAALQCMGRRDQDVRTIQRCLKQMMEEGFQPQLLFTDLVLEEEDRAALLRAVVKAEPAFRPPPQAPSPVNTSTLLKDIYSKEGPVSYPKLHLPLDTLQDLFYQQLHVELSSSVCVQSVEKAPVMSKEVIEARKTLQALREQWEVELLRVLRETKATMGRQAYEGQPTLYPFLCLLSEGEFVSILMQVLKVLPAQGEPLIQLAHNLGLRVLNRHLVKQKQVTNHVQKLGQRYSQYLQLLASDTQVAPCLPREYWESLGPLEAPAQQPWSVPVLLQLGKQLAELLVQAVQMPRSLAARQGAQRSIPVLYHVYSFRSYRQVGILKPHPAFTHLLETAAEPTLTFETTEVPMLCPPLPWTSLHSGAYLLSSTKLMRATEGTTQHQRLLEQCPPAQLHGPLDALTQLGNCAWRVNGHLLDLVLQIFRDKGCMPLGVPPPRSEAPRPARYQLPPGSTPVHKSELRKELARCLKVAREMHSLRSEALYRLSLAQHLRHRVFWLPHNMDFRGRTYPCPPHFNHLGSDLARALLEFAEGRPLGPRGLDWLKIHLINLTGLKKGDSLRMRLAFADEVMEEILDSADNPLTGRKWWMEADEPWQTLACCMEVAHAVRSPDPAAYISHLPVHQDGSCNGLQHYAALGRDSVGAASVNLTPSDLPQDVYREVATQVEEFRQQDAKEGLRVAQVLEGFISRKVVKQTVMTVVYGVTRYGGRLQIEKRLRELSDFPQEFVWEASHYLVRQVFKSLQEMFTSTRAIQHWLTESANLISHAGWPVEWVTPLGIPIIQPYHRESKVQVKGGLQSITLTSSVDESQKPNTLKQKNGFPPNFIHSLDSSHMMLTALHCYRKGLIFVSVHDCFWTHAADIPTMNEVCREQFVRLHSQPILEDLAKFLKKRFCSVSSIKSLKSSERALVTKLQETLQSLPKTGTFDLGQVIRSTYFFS

| pIC50 [1] | pIC50 [2] | Structure (SMILES) |
| --- | --- | --- |
| 7.00 to 7.70 | > 8.00 | Cc1ccsc1-c1cc(=O)oc2cc(O[C@H](C)C(=O)N3CCC[C@H](C(=O)O)C3)ccc12 [Compound 174, (3S)-1-[(2R)-2-[4-(3-methyl-2-thienyl)-2-oxo-chromen-7-yl]oxypropanoyl]piperidine-3-carboxylic acid] |
| 6.00 to 7.00 | 5.30 to 6.30 | CC(C)(Oc1ccc2c(-c3ccccc3Cl)cc(=O)oc2c1)C(=O)N1CCC[C@H](C(=O)O)C1 [Compound 116, (3S)-1-[2-[4-(2-chlorophenyl)-2-oxo-chromen-7-yl]oxy-2-methyl-propanoyl]piperidine-3-carboxylic acid] |
| 6.00 to 7.00 | 7.30 to 8.00 | CC(C)NC(=O)C(C)(C)Oc1ccc2c(-c3ccccc3Cl)cc(=O)oc2c1 [Compound 114, 2-[4-(2-chlorophenyl)-2-oxo-chromen-7-yl]oxy-N-isopropyl-2-methyl-propanamide] |
| > 7.70 | > 8.00 | CCC(Oc1ccc2c(-c3ccccc3Cl)cc(=O)oc2c1)C(=O)N1CCC[C@H](C(=O)O)C1 (stereo partly drawn) [Compound 110, (3S)-1-[2-[4-(2-chlorophenyl)-2-oxo-chromen-7-yl]oxybutanoyl]piperidine-3-carboxylic acid] |
| 7.00 to 7.70 | > 8.00 | CNC(=O)[C@H]1CCCN(C(=O)[C@@H](C)Oc2ccc3c(-c4ccc(F)cc4Cl)cc(=O)oc3c2)C1 [Compound 122] |
| 7.00 to 7.70 | 7.30 to 8.00 | COC(=O)[C@H]1CN(C(=O)[C@@H](C)Oc2ccc3c(-c4ccc(F)cc4Cl)cc(=O)oc3c2)CCN1 [Compound 136, methyl (2R)-4-[(2R)-2-[4-(2-chloro-4-fluoro-phenyl)-2-oxo-chromen-7-yl]oxypropanoyl]piperazine-2-carboxylate] |
| 7.00 to 7.70 | 6.30 to 7.30 | CC(Oc1ccc2c(-c3ccccc3Cl)cc(=O)oc2n1)C(=O)N1CCC[C@H](C(=O)O)C1 (mixture of isomers) [Compound 170, rac-(3S)-1-[2-[4-(2-chlorophenyl)-2-oxo-pyrano[2,3-b]pyridin-7-yl]oxypropanoyl]piperidine-3-carboxylic acid] |
| > 7.70 | > 8.00 | Cc1cscc1-c1cc(=O)oc2cc(O[C@H](C)C(=O)N3CCC[C@H](C(=O)O)C3)ccc12 [Compound 182, (3S)-1-[(2R)-2-[4-(4-methyl-3-thienyl)-2-oxo-chromen-7-yl]oxypropanoyl]piperidine-3-carboxylic acid] |
| 7.00 to 7.70 | > 8.00 | C[C@@H](Oc1ccc2c(-c3ccc(F)cc3Cl)cc(=O)oc2c1)C(=O)N1CC[C@H](CC(=O)O)C1 [Compound 145, 2-[(3R)-1-[(2R)-2-[4-(2-chloro-4-fluoro-phenyl)-2-oxo-chromen-7-yl]oxypropanoyl]pyrrolidin-3-yl]acetic acid] |
| 7.00 to 7.70 | > 8.00 | CCNC(=O)C(C)Oc1ccc2c(-c3ccc(F)cc3Cl)cc(=O)oc2c1 (centres unmarked) [Compound 91, 2-[4-(2-chloro-4-fluoro-phenyl)-2-oxo-chromen-7-yl]oxy-N-ethyl-propanamide] |
| > 7.70 | > 8.00 | CCC(=O)N1CCN(C(=O)[C@@H](C)Oc2ccc3c(-c4ccc(F)cc4Cl)cc(=O)oc3c2)CC1 [Compound 168, 4-(2-chloro-4-fluoro-phenyl)-7-[(1R)-1-methyl-2-oxo-2-(4-propanoylpiperazin-1-yl)ethoxy]chromen-2-one] |
| 7.00 to 7.70 | 6.30 to 7.30 | C[C@@H](Oc1ccc2c(-c3ccc(F)cc3Cl)cc(=O)oc2n1)C(=O)N1CCC[C@H](C(=O)O)C1 [Compound 173, (3S)-1-[(2R)-2-[4-(2-chloro-4-fluoro-phenyl)-2-oxo-pyrano[2,3-b]pyridin-7-yl]oxypropanoyl]piperidine-3-carboxylic acid] |
| > 7.70 | 7.30 to 8.00 | C[C@@H](Oc1ccc2c(-c3ccc(F)cc3Cl)cc(=O)oc2c1)C(=O)N1CC[C@@H](CC(=O)O)C1 [Compound 147, 2-[(3S)-1-[(2R)-2-[4-(2-chloro-4-fluoro-phenyl)-2-oxo-chromen-7-yl]oxypropanoyl]pyrrolidin-3-yl]acetic acid] |

The next lines start with the molecule.

| Structure (SMILES) | pIC50 [1] | pIC50 [2] |
| --- | --- | --- |
| CC(Oc1ccc2c(-c3ccccc3Cl)cc(=O)oc2c1)C(=O)N1CCC[C@H](C(=O)O)C1 (stereo partly drawn) [Compound 33, (3S)-1-[2-[4-(2-chlorophenyl)-2-oxo-chromen-7-yl]oxypropanoyl]piperidine-3-carboxylic acid] | > 7.70 | > 8.00 |
| CC(C)NC(=O)C(C)Oc1ccc2c(-c3ccccc3Cl)cc(=O)oc2c1 (centres unmarked) [Compound 70, 2-[4-(2-chlorophenyl)-2-oxo-chromen-7-yl]oxy-N-isopropyl-propanamide] | 7.00 to 7.70 | > 8.00 |
| CC(Oc1ccc2c(-c3ccccc3Cl)cc(=O)oc2c1)C(=O)N1CCCC(CC(=O)O)C1 (centres unmarked) [Compound 66, 2-[1-[2-[4-(2-chlorophenyl)-2-oxo-chromen-7-yl]oxypropanoyl]-3-piperidyl]acetic acid] | 7.00 to 7.70 | > 8.00 |
| CC(Oc1ccc2c(-c3ccccc3Cl)cc(=O)oc2c1)C(=O)N1CCCC(C)(C(=O)O)C1 (centres unmarked) [Compound 54, 1-[2-[4-(2-chlorophenyl)-2-oxo-chromen-7-yl]oxypropanoyl]-3-methyl-piperidine-3-carboxylic acid] | > 7.70 | > 8.00 |
| CC(Oc1ccc2c(-c3ccccc3Cl)cc(=O)oc2c1)C(=O)N1CCCC(C(=O)O)C1 (centres unmarked) [Compound 9, 1-[2-[4-(2-chlorophenyl)-2-oxo-chromen-7-yl]oxypropanoyl]piperidine-3-carboxylic acid] | > 7.70 | > 8.00 |
| Cc1ccccc1-c1cc(=O)oc2cc(O[C@H](C)C(=O)NC(C)C)ccc12 [Compound 36, (2R)-N-isopropyl-2-[4-(o-tolyl)-2-oxo-chromen-7-yl]oxy-propanamide] | > 7.70 | > 8.00 |
| CC(Oc1ccc2c(-c3ccccc3Cl)cc(=O)oc2c1)C(=O)N1CCCC(S(N)(=O)=O)C1 (centres unmarked) [Compound 24, 1-[2-[4-(2-chlorophenyl)-2-oxo-chromen-7-yl]oxypropanoyl]piperidine-3-sulfonamide] | > 7.70 | > 8.00 |
| COC(=O)CC1CCN(C(=O)C(C)Oc2ccc3c(-c4ccccc4Cl)cc(=O)oc3c2)CC1 (centres unmarked) [Compound 80, methyl 2-[1-[2-[4-(2-chlorophenyl)-2-oxo-chromen-7-yl]oxypropanoyl]-4-piperidyl]acetate] | 7.00 to 7.70 | 6.30 to 7.30 |
| Cc1ccccc1-c1cc(=O)oc2cc(OC(C)C(=O)N3CCC[C@@H](C(=O)N(C)C)C3)ccc12 (stereo partly drawn) [Compound 78, (3R)-N,N-dimethyl-1-[2-[4-(o-tolyl)-2-oxo-chromen-7-yl]oxypropanoyl]piperidine-3-carboxamide] | 7.00 to 7.70 | > 8.00 |
| Cc1ccccc1-c1cc(=O)oc2cc(OC(C)C(=O)NC3CC3)ccc12 (centres unmarked) [Compound 25, N-cyclopropyl-2-[4-(o-tolyl)-2-oxo-chromen-7-yl]oxy-propanamide] | > 7.70 | > 8.00 |
| CC(Oc1ccc2c(-c3ccccc3Cl)cc(=O)oc2c1)C(=O)N1CCC(CC(=O)O)CC1 (centres unmarked) [Compound 59, 2-[1-[2-[4-(2-chlorophenyl)-2-oxo-chromen-7-yl]oxypropanoyl]-4-piperidyl]acetic acid] | 7.00 to 7.70 | 7.30 to 8.00 |
| CC(Oc1ccc2c(-c3ccc(F)cc3Cl)cc(=O)oc2c1)C(=O)N1CCCC(S(N)(=O)=O)C1 (centres unmarked) [Compound 69, 1-[2-[4-(2-chloro-4-fluoro-phenyl)-2-oxo-chromen-7-yl]oxypropanoyl]piperidine-3-sulfonamide] | 7.00 to 7.70 | > 8.00 |
